Source: US20250154134A1, “COMPOUND AS FAK INHIBITOR AND USE THEREOF” (WIGEN BIOMEDICINE TECHNOLOGY (SHANGHAI) CO., LTD., priority 2022, published 2025)
pIC50: −log10 of the molar value.

Assays:
[1] = system: PC3 cells; experiment: PC3 cell proliferation, 3D activity assay (3D culture, 14 days); format: cell-based, human; settings: read-out: 3D inhibitory activity against PC3 cells IC50
[2] = target: FAK recombinant protein (Homo sapiens (Human), UniProt Q05397); experiment: Inhibitory activity against FAK enzyme (HTRF, TK substrate); format: biochemical
Experimental: A compound serially diluted with DMSO was mixed with a FAK recombinant protein. After the mixture was left to stand at room temperature for 10 min, a biotin-labeled TK substrate (TK) and ATP were added. […] The inhibition percentage and IC50 of the compound were calculated compared to the DMSO control group.

[3] = system: PC3 cells; experiment: PC3 cell proliferation, 2D activity assay (Cell Titer-Lumi, 72 h); format: cell-based, human
[4] = system: PC3 cells; experiment: Inhibition of PC3 cell low adsorption (adherent cell count, 4 h); format: cell-based; settings: Homo sapiens, PC-3; 4 h treatment; read-out: IC50 against PC3 cell low adsorption
Experimental: PC3 cells were seeded at 8000 cells/well. 4 h after the cells were treated with a compound, the number of adherent cells was counted. The inhibition percentage and IC50 of the compound were calculated compared to the DMSO group.

[5] = Homo sapiens, PC-3, read-out: 2D inhibitory activity against PC3 cells IC50

FAK recombinant protein, sequence (Q05397 whole entry): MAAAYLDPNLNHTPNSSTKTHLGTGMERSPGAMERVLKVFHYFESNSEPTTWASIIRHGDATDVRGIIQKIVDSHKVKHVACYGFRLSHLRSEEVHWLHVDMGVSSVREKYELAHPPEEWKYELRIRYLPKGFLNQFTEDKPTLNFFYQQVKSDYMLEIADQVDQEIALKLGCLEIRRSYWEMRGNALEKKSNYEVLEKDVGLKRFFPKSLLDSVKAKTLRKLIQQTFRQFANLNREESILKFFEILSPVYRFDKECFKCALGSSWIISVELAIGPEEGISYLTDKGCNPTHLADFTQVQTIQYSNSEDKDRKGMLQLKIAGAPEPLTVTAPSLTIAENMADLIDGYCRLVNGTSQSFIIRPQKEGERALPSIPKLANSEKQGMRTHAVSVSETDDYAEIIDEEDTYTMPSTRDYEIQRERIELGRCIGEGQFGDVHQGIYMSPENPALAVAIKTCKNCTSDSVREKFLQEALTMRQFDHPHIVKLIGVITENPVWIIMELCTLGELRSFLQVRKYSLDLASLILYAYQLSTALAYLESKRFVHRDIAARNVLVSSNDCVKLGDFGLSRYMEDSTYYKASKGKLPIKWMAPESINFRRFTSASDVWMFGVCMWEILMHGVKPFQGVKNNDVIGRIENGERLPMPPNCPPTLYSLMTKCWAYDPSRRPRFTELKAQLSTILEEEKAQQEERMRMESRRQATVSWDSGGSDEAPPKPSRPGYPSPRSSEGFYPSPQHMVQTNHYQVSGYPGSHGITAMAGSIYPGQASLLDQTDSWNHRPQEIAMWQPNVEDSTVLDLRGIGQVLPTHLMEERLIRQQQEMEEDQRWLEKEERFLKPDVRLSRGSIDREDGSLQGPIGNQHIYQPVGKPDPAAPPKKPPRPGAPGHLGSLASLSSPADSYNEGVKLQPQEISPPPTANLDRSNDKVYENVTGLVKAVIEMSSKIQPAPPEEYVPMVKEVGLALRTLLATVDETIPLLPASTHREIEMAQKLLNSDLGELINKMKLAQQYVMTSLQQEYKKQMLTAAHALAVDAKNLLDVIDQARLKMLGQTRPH

Compound | pIC50 ([1]; Homo sapiens, PC-3, 336 h) | pIC50 [2] | pIC50 [3, 5] | pIC50 [4] | pIC50 [1] | pIC50 ([3]; read-out: 2D inhibitory activity against PC3 cells IC50)
CNC(=O)c1ccc(Nc2ncc(C(F)(F)F)c(Oc3cccc4c3C(=O)N(C)C43CC3)n2)cc1 [Compound 1, N-methyl-4-((4-((2′-methyl-3′-oxospiro[cyclopropane-1,1′-isoindolin]-4′-yl)oxy)-5-(trifluoromethyl)pyrimidin-2-yl)amino)benzamide] | 7.97 | > 7.70 | < 5.70 | 7.68 | – | –
COc1cc(C(=O)NC2(C)CCN(C)CC2)ccc1Nc1ncc(C(F)(F)F)c(Oc2cccc3c2C(=O)N(C)C32CC2)n1 [Compound 6] | > 8.30 | > 7.70 | < 5.70 | 8.57 | – | –
COc1cc(C(=O)NC2CC3(CCN(C)CC3)C2)c(F)cc1Nc1ncc(C(F)(F)F)c(Oc2cccc3c2C(=O)N(C)C32CC2)n1 [Compound 8, 2-fluoro-5-methoxy-4-((4-((2′-methyl-3′-oxospiro[cyclopropane-1,1′-isoindolin]-4′-yl)oxy)-5-(trifluoromethyl)pyrimidin-2-yl)amino)-N-(7-methyl-7-azaspiro[3.5]nonan-2-yl)benzamide] | 9.02 | > 7.70 | < 5.70 | 8.12 | – | –
COc1cc(C(=O)NC2COC3(CCN(C)C3)C2)ccc1Nc1ncc(C(F)(F)F)c(Oc2cccc3c2C(=O)N(C)C32CC2)n1 (stereo not drawn) [Compound 27] | > 8.30 | > 7.70 | < 5.70 | 7.93 | – | –
CN1C(=O)c2c(Oc3nc(Nc4ccc5c(c4)CC(=O)N5)ncc3C(F)(F)F)cccc2C12CC2 [Compound 69] | 8.07 | > 7.70 | < 5.70 | 7.87 | – | –
CN1C(=O)c2c(Oc3nc(Nc4ccc5c(c4)CCNC5=O)ncc3C(F)(F)F)cccc2C12CC2 [Compound 71] | 8.29 | > 7.70 | < 5.70 | 7.78 | – | –
COc1cc(N2CCOCC2)ccc1Nc1ncc(C(F)(F)F)c(Oc2cccc3c2C(=O)N(C)C32CC2)n1 [Compound 77] | 8.31 | > 7.70 | < 5.00 | 7.56 | – | –
COc1cc(CN2CCN(C)CC2)ccc1Nc1ncc(C(F)(F)F)c(Oc2cccc3c2C(=O)N(C)C32CC2)n1 [Compound 82] | 7.30 to 8.30 | > 7.70 | < 5.70 | 8.20 | – | –
CN1Cc2cc(Nc3ncc(C(F)(F)F)c(Oc4cccc5c4C(=O)N(C)C54CC4)n3)cc3c2C(CCC3)C1 (stereo not drawn) [Compound 88] | 8.75 | > 7.70 | < 5.00 | 7.37 | – | –
COCCN1CCN(c2ccc(Nc3ncc(Br)c(Oc4cccc5c4C(=O)N(C)C54CC4)n3)c(OC)c2)CC1 [Compound 185] | > 8.30 | > 7.70 | < 5.70 | – | – | –
COCCN1CCN(c2cc(OC)c(Nc3ncc(Br)c(Oc4cccc5c4C(=O)N(C)C54CC4)n3)cc2F)CC1 [Compound 186] | > 8.30 | > 7.70 | < 5.70 | – | – | –
COc1cc(N2CCN(CC(=O)N(C)C)CC2)ccc1Nc1ncc(Br)c(Oc2cccc3c2C(=O)N(C)C32CC2)n1 [Compound 187] | > 8.30 | > 7.70 | < 5.70 | – | – | –
COc1cc(N2CC3(CN(C)C3)C2)ccc1Nc1ncc(Br)c(Oc2cccc3c2C(=O)N(C)C32CC2)n1 [Compound 188] | 7.30 to 8.30 | > 7.70 | < 5.70 | – | – | –
COc1cc(N2CCC3(CCN(C)CC3)CC2)ccc1Nc1ncc(Br)c(Oc2cccc3c2C(=O)N(C)C32CC2)n1 [Compound 189] | > 8.30 | > 7.70 | < 5.70 | – | – | –
COc1cc(N2CCC3(CC2)CN(C)C3)ccc1Nc1ncc(Br)c(Oc2cccc3c2C(=O)N(C)C32CC2)n1 [Compound 190] | > 8.30 | > 7.70 | < 5.70 | – | – | –
COc1cc(N2CCC(N(C)C)CC2)c(F)cc1Nc1ncc(Br)c(Oc2cccc3c2C(=O)N(C)C32CC2)n1 [Compound 191] | 7.30 to 8.30 | > 7.70 | < 5.70 | – | – | –
COc1cc(C(=O)NC2CCN(C)CC2)ccc1Nc1ncc(C#N)c(Oc2cccc3c2C(=O)N(C)C32CC2)n1 [Compound 192, 4-((5-cyano-4-((2′-methyl-3′-oxospiro[cyclopropane-1,1′-isoindolin]-4′-yl)oxy)pyrimidin-2-yl)amino)-3-methoxy-N-(1-methylpiperidin-4-yl)benzamide] | > 8.30 | > 7.70 | < 5.70 | – | – | –
COc1cc(C(=O)NC2CCN(C)CC2)c(F)cc1Nc1ncc(C#N)c(Oc2cccc3c2C(=O)N(C)C32CC2)n1 [Compound 193] | > 8.30 | > 7.70 | < 5.70 | – | – | –
COc1cc(C(=O)NC2CC3(CCN(C)CC3)C2)c(F)cc1Nc1ncc(C#N)c(Oc2cccc3c2C(=O)N(C)C32CC2)n1 [Compound 194] | > 8.30 | > 7.70 | < 5.70 | – | – | –
COc1cc(C(=O)NC2CC3(CCN(C)CC3)C2)ccc1Nc1ncc(C#N)c(Oc2cccc3c2C(=O)N(C)C32CC2)n1 [Compound 195] | > 8.30 | > 7.70 | < 5.70 | – | – | –

Compound | pIC50 ([1]; Homo sapiens, PC-3, 336 h) | pIC50 [2] | pIC50 [3, 5] | pIC50 [4] | pIC50 [1] | pIC50 ([3]; read-out: 2D inhibitory activity against PC3 cells IC50)
COc1cc(C2CCN(C)CC2)ccc1Nc1ncc(C#N)c(Oc2cccc3c2C(=O)N(C)C32CC2)n1 [Compound 198] | 7.30 to 8.30 | > 7.70 | < 5.70 | – | – | –
COc1cc(C2CCN(C)CC2)c(F)cc1Nc1ncc(C#N)c(Oc2cccc3c2C(=O)N(C)C32CC2)n1 [Compound 199] | 7.30 to 8.30 | > 7.70 | < 5.70 | – | – | –
COc1cc(N2CCC(N3CCN(C)CC3)CC2)ccc1Nc1ncc(C#N)c(Oc2cccc3c2C(=O)N(C)C32CC2)n1 [Compound 200] | > 8.30 | > 7.70 | < 5.70 | – | – | –
COc1cc(N2CCN(C)CC2)c(F)cc1Nc1ncc(C#N)c(Oc2cccc3c2C(=O)N(C)C32CC2)n1 [Compound 201] | > 8.30 | > 7.70 | < 5.70 | – | – | –
COc1cc(N2CCC3(CC2)CN(C)C3)ccc1Nc1ncc(C#N)c(Oc2cccc3c2C(=O)N(C)C32CC2)n1 [Compound 202] | > 8.30 | > 7.70 | < 5.70 | – | – | –
COc1cc(N2CC3(CCN(C)CC3)C2)ccc1Nc1ncc(Cl)c(Oc2cccc3c2C(=O)N(C)C32CCC2)n1 [Compound 203, 94′-((5-chloro-2-((2-methoxy-4-(7-methyl-2,7-diazaspiro[3.5]nonan-2-yl)phenyl)amino)pyrimidin-4-yl)oxy)-2′-methylspiro[cyclobutane-1,1′-isoindolin]-3′-one] | – | > 7.70 | – | – | > 8.30 | < 5.70
COc1cc(C(=O)NC2CC3(CCN(C)CC3)C2)c(F)cc1Nc1ncc(Cl)c(Oc2cccc3c2C(=O)N(C)C32CCC2)n1 [Compound 204] | > 8.30 | > 7.70 | < 5.70 | – | – | –
COc1cc(C(=O)NC2CCN(C)CC2)c(F)cc1Nc1ncc(Cl)c(Oc2cccc3c2C(=O)N(C)C32CCC2)n1 [Compound 205] | > 8.30 | > 7.70 | < 5.70 | – | – | –
COc1cc(N2CC3(CCN(C)CC3)C2)c(F)cc1Nc1ncc(Cl)c(Oc2cccc3c2C(=O)N(C)C32CCC2)n1 [Compound 206] | > 8.30 | > 7.70 | < 5.70 | – | – | –
COc1cc(N2CC3(CCN(C)CC3)C2)ccc1Nc1ncc(Cl)c(Oc2cccc3c2C(=O)N(C)C32CCCC2)n1 [Compound 207] | 7.30 to 8.30 | > 7.70 | < 5.70 | – | – | –
COc1cc(C(=O)NC2CC3(CCN(C)CC3)C2)c(F)cc1Nc1ncc(Cl)c(Oc2cccc3c2C(=O)N(C)C32CCCC2)n1 [Compound 208] | < 7.30 | > 7.70 | < 5.70 | – | – | –
COc1cc(N2CC3(CCN(C)CC3)C2)ccc1Nc1ncc(Cl)c(Oc2cccc3c2C(=O)N(C)C32CCCCC2)n1 [Compound 210] | < 7.30 | > 7.70 | < 5.70 | – | – | –
COc1cc(N2CC3(CCN(C)CC3)C2)c(F)cc1Nc1ncc(Cl)c(Oc2cccc3c2C(=O)N(C)C32CCCCC2)n1 [Compound 211] | < 7.30 | > 7.70 | < 5.70 | – | – | –
COc1cc(C(=O)NC2CCN(C)CC2)c(F)cc1Nc1ncc(Cl)c(Oc2cccc3c2C(=O)N(C)C32CCCCC2)n1 [Compound 212] | < 7.30 | > 7.70 | < 5.70 | – | – | –
COc1cc(N2CC3(CCN(C)CC3)C2)ccc1Nc1ncc(Cl)c(Oc2cccc3c2C(=O)N(C)C32CCOCC2)n1 [Compound 213] | < 7.30 | > 7.70 | < 5.70 | – | – | –
COc1cc(N2CC3(CCN(C)CC3)C2)c(F)cc1Nc1ncc(Cl)c(Oc2cccc3c2C(=O)N(C)C32CCOCC2)n1 [Compound 214] | < 7.30 | > 7.70 | < 5.70 | – | – | –
COc1cc(C(=O)NC2CCN(C)CC2)c(F)cc1Nc1ncc(Cl)c(Oc2cccc3c2C(=O)N(C)C32CCOCC2)n1 [Compound 215] | < 7.30 | > 7.70 | < 5.70 | – | – | –
COc1cc(N2CC3(CCN(C)CC3)C2)ccc1Nc1ncc(Cl)c(Oc2cccc3c2C(=O)N(C)C32COC2)n1 [Compound 216] | 7.30 to 8.30 | > 7.70 | < 5.70 | – | – | –
COc1cc(N2CC3(CCN(C)CC3)C2)c(F)cc1Nc1ncc(Cl)c(Oc2cccc3c2C(=O)N(C)C32COC2)n1 [Compound 217] | 7.30 to 8.30 | > 7.70 | < 5.70 | – | – | –
COc1cc(C(=O)NC2CCN(C)CC2)c(F)cc1Nc1ncc(Cl)c(Oc2cccc3c2C(=O)N(C)C32COC2)n1 [Compound 218] | < 7.30 | > 7.70 | < 5.70 | – | – | –
